This note sets out measurements from patent US8946257B2, “N-containing heteroaryl derivatives as JAK3 kinase inhibitors” (Vectura Limited, priority 2009, dated 2015).

Assay [1] addresses T1, catalytic domain of human JAK2 (Homo sapiens, UniProt O60674).
T1 construct: the catalytic domain of human JAK2
The assay can be described thus: Inhibition of JAK2 activity (Z'-Lyte Kinase Assay kit-Tyr 6 Peptide). The class given is biochemical. The protocol: The inhibition of JAK2 kinase activity was determined in 384-well assay microplates using the Z′-Lyte® Kinase Assay kit-Tyr 6 Peptide kit, supplied by Invitrogen (Ref: PV4122), following the manufacturer's instructions.
(§1) In a final volume of 10 μL per well, 2.5 μL of the product to be tested dissolved in 4% DMSO (final concentration of the product to be tested, 0.1-10000 nM) was incubated with 0.5 μg/well of the catalytic domain of human JAK2, 2 μM of the substrate peptide Z′-Lyte® Tyr 6 and 16 μM of ATP; all components were dissolved in 50 mM pH 7.5 Hepes buffer, 10 mM Magnesium chloride (II), 1 mM EGTA and 0.01% Brij® 35. The reaction was started by the addition of said 16 μM ATP; after incubation for 1 hour at 25° C., 5 μL of A Z′-Lyte® Tyr 6 development reagent was added and the mixture was incubated for 1 hour at 25° C. Phosphorylation was then quantified in each well using a Safire2® fluorescence microplate reader from Tecan.

The target of assay [2] is catalytic domain of human JAK3 (Homo sapiens, UniProt P52333). Kind of assay: Inhibition of JAK3 activity (Z'-Lyte Kinase Assay kit-Tyr 6 Peptide). The class given is biochemical. The protocol: The inhibition of JAK3 kinase activity was determined in 384-well assay microplates using the Z′-Lyte® Kinase Assay kit-Tyr 6 Peptide kit, supplied by Invitrogan (Ref: PV4122), following the manufacturer's instructions.
catalytic domain of human JAK3, sequence (P52333 781-1124 limits assumed): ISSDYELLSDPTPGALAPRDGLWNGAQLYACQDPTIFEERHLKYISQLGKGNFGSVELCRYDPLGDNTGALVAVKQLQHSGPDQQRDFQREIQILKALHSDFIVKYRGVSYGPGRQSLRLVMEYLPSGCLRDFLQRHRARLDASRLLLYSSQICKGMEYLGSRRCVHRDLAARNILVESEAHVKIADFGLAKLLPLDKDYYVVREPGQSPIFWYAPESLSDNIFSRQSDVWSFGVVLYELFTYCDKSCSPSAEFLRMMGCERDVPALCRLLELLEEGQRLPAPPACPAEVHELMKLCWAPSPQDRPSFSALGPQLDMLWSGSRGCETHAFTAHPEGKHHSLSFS
as §1, with “0.3 μg/mL” for “0.5 μg/well”, “JAK3 (amino acid sequence […]),” for “JAK2,”, “4” for “16”

T1 sequence (O60674 849-1124 limits assumed): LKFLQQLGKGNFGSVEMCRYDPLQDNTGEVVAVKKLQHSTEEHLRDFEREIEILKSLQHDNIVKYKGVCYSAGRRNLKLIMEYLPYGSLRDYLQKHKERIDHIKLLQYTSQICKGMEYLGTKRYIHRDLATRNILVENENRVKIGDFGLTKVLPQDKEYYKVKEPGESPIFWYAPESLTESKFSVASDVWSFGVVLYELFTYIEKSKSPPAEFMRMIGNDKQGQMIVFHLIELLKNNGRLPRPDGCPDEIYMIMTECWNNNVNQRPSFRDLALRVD

Take `CC(=O)N1CCC(n2c(=O)[nH]c3cnc(-c4cnn5ccc(C)cc45)nc32)CC1` [Example 1s, 9-(1-acetylpiperidin-4-yl)-2-(5-methylpyrazolo[1,5-a]pyridin-3-yl)-7H-purin-8(9H)-one]: the inhibition at 1 µM in assay [1] and in assay [2] was more than 50% in each case.
Turning to `N#Cc1ccn2ncc(-c3ccc4[nH]c(=O)n(C5CCOCC5)c4n3)c2c1` [Example 2, 3-(2-Oxo-3-(tetrahydro-2H-pyran-4-yl)-2,3-dihydro-1H-imidazo[4,5-b]pyridin-5-yl)pyrazolo[1,5-a]pyridine-5-carbonitrile], the inhibition at 1 µM in assay [1] and in assay [2] was more than 50% each time.
As for `O=c1[nH]c2ccc(-c3cnn4ccccc34)nc2n1C1CCOCC1` [Example 2e, 5-(pyrazolo[1,5-a]pyridin-3-yl)-3-(tetrahydro-2H-pyran-4-yl)-1H-imidazo[4,5-b]pyridin-2(3H)-one], the inhibition at 1 µM in assay [1] and in assay [2] was more than 50% in each case.
With `Cn1c(=O)n(C2CCOCC2)c2nc(-c3cnn4ccc(C#N)cc34)ncc21` [Example 4, 3-(7-Methyl-8-oxo-9-tetrahydro-2H-pyran-4-yl-8,9-dihydro-7H-purin-2yl)pyrazolo[1,5-a]pyridine-5-carbonitrile], the inhibition at 1 µM in assay [1] and in assay [2] was more than 50% in each case.
As for `Cn1c(=O)n(C2CCOCC2)c2nc(-c3cnn4ccccc34)ccc21` [Example 5s, 1-methyl-5-(pyrazolo[1,5-a]pyridin-3-yl)-3-(tetrahydro-2H-pyran-4-yl)-1H-imidazo[4,5-b]pyridin-2(3H)-one], the inhibition at 1 µM in assay [1] and in assay [2] was more than 50% in each case.
In the case of `Cc1nc2ccc(-c3cnn4ccc(C#N)cc34)nc2n1C1CCOCC1` [Example 20, 3-(2-Methyl-3-(tetrahydro-2H-pyran-4-yl)-3H-imidazo[4,5-b]pyridin-5-yl)pyrazolo[1,5-a]pyridine-5-carbonitrile], the inhibition at 1 µM in assay [1] and in assay [2] was more than 50% throughout.
With `CCNc1nc2cnc(-c3cnn4ccc(C#N)cc34)nc2n1C1CCOCC1` [Example 22, 3-[8-(Ethylamino)-9-tetrahydro-2H-pyran-4-yl-9H-purin-2-yl]pyrazolo[1,5-a]pyridine-5-carbonitrile], the inhibition at 1 µM in assay [1] and in assay [2] was more than 50% in each case.
Take `c1ccn2ncc(-c3ncc4nc(C5CCCC5)n(C5CCOCC5)c4n3)c2c1` [Example 23, 8-Cyclopentyl-2-(pyrazolo[1,5-a]pyridin-3-yl)-9-(tetrahydro-2H-pyran-4-yl)-9H-purine]: the inhibition at 1 µM in assay [1] and in assay [2] was more than 50% in each case.
`CC(=O)N1CCC[C@H](n2c(=O)n(C)c3ccc(-c4cnn5ccccc45)nc32)C1` [Example 24, (S)-3-(1-Acetylpiperidin-3-yl)-1-methyl-5-(pyrazolo[1,5-a]pyridin-3-yl)-1H-imidazo[4,5-b]pyridin-2(3H)-one]: the inhibition at 1 µM in assay [1] and in assay [2] was more than 50% each time.
Consider `Cn1c(=O)n([C@H]2CCCN(C(=O)C3(C#N)CC3)C2)c2nc(-c3cnn4ccccc34)ccc21` [Example 25, (S)-1-(3-(1-Methyl-2-oxo-5-(pyrazolo[1,5-a]pyridin-3-yl)-1H-imidazo[4,5-b]pyridin-3(2H)-yl)piperidine-1-carbonyl)cyclopropanecarbonitrile], for which the inhibition at 1 µM in assay [1] and in assay [2] was more than 50% throughout.
Turning to `N#Cc1ccn2ncc(-c3ncc4[nH]c(=O)n([C@H]5CCCN(C(=O)C6(C#N)CC6)C5)c4n3)c2c1` [Example 27, (S)-3-(9-(1-(1-Cyanocyclopropanecarbonyl)piperidin-3-yl)-8-oxo-8,9-dihydro-7H-purin-2-yl)pyrazolo[1,5-a]pyridine-5-carbonitrile], the inhibition at 1 µM in assay [1] and in assay [2] was more than 50% in each case.
Consider `Cc1ccn2ncc(-c3ncc4ncn([C@H]5CCCN(C(=O)CC#N)C5)c4n3)c2c1` [Example 29, (S)-3-(3-(2-(5-Methylpyrazolo[1,5-a]pyridin-3-yl)-9H-purin-9-yl)piperidin-1-yl)-3-oxopropanenitrile], for which the inhibition at 1 µM in assay [1] and in assay [2] was more than 50% throughout.
Consider `CC(=O)OCn1c(=O)n([C@H]2CCCN(C(=O)CC#N)C2)c2nc(-c3cnn4ccccc34)ncc21` [Example 31, (S)-(9-(1-(2-Cyanoacetyl)piperidin-3-yl)-8-oxo-2-(pyrazolo[1,5-a]pyridin-3-yl)-8,9-dihydro-7H-purin-7-yl)methyl acetate], for which the inhibition at 1 µM in assay [1] and in assay [2] was more than 50% in each case.
As to `Nc1nc2cnc(-c3cnn4ccccc34)nc2n1C1CCOCC1` [Example 33, 2-(Pyrazolo[1,5-a]pyridin-3-yl)-9-(tetrahydro-2H-pyran-4-yl)-9H-purin-8-amine], the inhibition at 1 µM in assay [1] and in assay [2] was more than 50% each time.
Regarding `O=C1CCCN1c1nc2cnc(-c3cnn4ccccc34)nc2n1C1CCOCC1` [Example 34, 1-(2-(Pyrazolo[1,5-a]pyridin-3-yl)-9-(tetrahydro-2H-pyran-4-yl)-9H-purin-8-yl)pyrrolidin-2-one], the inhibition at 1 µM in assay [1] and in assay [2] was more than 50% in each case.
Turning to `Cn1c(=O)n(C2CCOCC2)c2nc(-c3cnc4ccccn34)ncc21` [Example 37, 2-(Imidazo[1,2-a]pyridin-3-yl)-7-methyl-9-(tetrahydro-2H-pyran-4-yl)-7H-purin-8(9H)-one], the inhibition at 1 µM in assay [2] was more than 50%.
